Experimental data published in PMC10453766, “Comparison of the Effects of DOTA and NOTA Chelators on ^64Cu-Cudotadipep and ^64Cu-Cunotadipep for Prostate Cancer” (Diagnostics, 2023).

Experiments:
PC3-PIP (PSMA+) cells = assay: Cell uptake in PC3-PIP cells; assay type: cell-based, human; details: PC3-PIP cells, 1 × 10^6 cells, 3.7 MBq, 2 h, 37 °C
Description: (§1) PC3-PIP or PC3-flu cells (1 × 10^6) were mixed with 3.7 MBq (100 μCi) of ^64Cu-cudotadipep or ^64Cu-cunotadipep and incubated at 37 °C and 5% CO2 for 2 h. Following incubation, the cells were washed with PBS twice and collected via centrifugation (2000 rpm, 5 min). Radioactivity was measured using 2480 WIZARD2 gamma counter (Perkin Elmer, Waltham, MA, USA). Percent (%) uptake was calculated using the ratio between the radioactivity of the cells and treated radioactivity.

PC3-flu (PSMA−) cells = assay: Cell uptake in PC3-flu cells; assay type: cell-based, human; details: 1 × 10^6 cells, 3.7 MBq, 2 h, 37 °C
Description: as §1

[1] = Serum stability in human serum (radio-TLC); assay type: in vitro ADME; details: 37 °C, 2, 24 and 48 h
Description: (§2) The serum stabilities of ^64Cu-cudotadipep and ^64Cu-cunotadipep were evaluated in human and mouse sera for 48 h. Briefly, 10 µL ^64Cu-cudotadipep (3.7 MBq) or […] (3.7 MBq) was mixed with 90 µL human or mouse serum and then incubated at 37 °C for 48 h. At each time point (2, 24, and 48 h), a 10 µL sample was removed, mixed with 100 µL distilled water, filtered through a 0.22 µm membrane filter, and then analyzed using radio-thin layer chromatography (TLC eluent condition: 1 M NH4OAc:MeOH = 1:1). The radio-TLCs were performed using a radio-TLC imaging scanner (BioScan, Washington, DC, USA) for radiodetection.

[2] = Serum stability in mouse serum (radio-TLC); assay type: in vitro ADME; details: 37 °C, 2, 24 and 48 h
Description: as §2

[3] = Biodistribution in normal BALB/c mice; assay type: in vivo, mouse; details: tail vein
Description: (§3) Approximately 0.93 MBq ^64Cu-cudotadipep or ^64Cu-cunotadipep was injected via the tail vein into normal BALB/c mice or PC3-PIP tumor-bearing nude mice (n = 5/group). Normal and tumor-bearing mice were euthanized at 2, 6, 24, and 48 h following injection. Tumor and normal tissues were excised and weighed, and their radioactivity was measured using a gamma counter (2480 WIZARD2 gamma counter, Perkin Elmer, Waltham, MA, USA). The radioactivity measured in each tissue was expressed as a percentage of the injected dose per gram of tissue (%ID/g).

PC3-PIP tumor xenograft = assay: Biodistribution in PC3-PIP tumor-bearing nude mice; assay type: in vivo, mouse; details: tail vein
Description: All animal experiments followed the procedures approved by the Institutional Animal Care and Use Committee of Korea Institute of Radiological & Medical Sciences (approval No. KIRAMS2021-0044). Male BALB/c mice and athymic nude (Nu/Nu) BALB/c mice (weighing 20–25 g, 8 weeks old) were purchased from Nara Biotech (Seoul, Republic of Korea). PC3-PIP cells (1 × 10^7) were dispensed in 100 μL PBS, mixed with Matrigel, and subcutaneously implanted in the right thigh of male athymic nude (Nu/Nu) BALB/c mice. When the tumor reached 0.5–0.9 cm in diameter (2–3 weeks following implantation), biodistribution studies and PET imaging were performed.
as §3

[4] = Radiation-absorbed dose calculation (OLINDA/EXM) from normal mouse biodistribution; set-up: species or system human
Description: The biodistribution results of normal BALB/c mice were used to evaluate the human radiation-absorbed dose. The internal absorbed doses of ^64Cu-cudotadipep and ^64Cu-cunotadipep were evaluated using the residence time and total amount of radioactivity in the target organ of the mice. The internal absorbed dose of the mice was converted to the human dose based on the Medical Internal Radiation Dose schema, using OLINDA/EXM version 1.1 software.

serum stability [1]: > 98% | serum stability [2]: > 98% | Biodistribution, Blood ([3]; 2 h): 9.51 ± 7.25 %ID/g | Biodistribution, Bone ([3]; 2 h): 1.07 ± 0.24 %ID/g | Biodistribution, Brain ([3]; 2 h): 0.26 ± 0.12 %ID/g | Biodistribution, Fat ([3]; 2 h): 1.20 ± 0.35 %ID/g | Biodistribution, Heart ([3]; 2 h): 3.17 ± 1.12 %ID/g | Biodistribution, Intestine ([3]; 2 h): 2.21 ± 0.35 %ID/g | Biodistribution, Kidney ([3]; 2 h): 53.28 ± 19.92 %ID/g | Biodistribution, Liver ([3]; 2 h): 4.38 ± 1.51 %ID/g | Biodistribution, Lung ([3]; 2 h): 5.48 ± 2.24 %ID/g | Biodistribution, Muscle ([3]; 2 h): 1.30 ± 0.42 %ID/g | Biodistribution, Spleen ([3]; 2 h): 5.07 ± 1.38 %ID/g | Biodistribution, Stomach ([3]; 2 h): 1.21 ± 0.49 %ID/g | Biodistribution, Blood ([3]; 6 h): 5.62 ± 0.95 %ID/g | Biodistribution, Bone ([3]; 6 h): 0.89 ± 0.22 %ID/g | Biodistribution, Brain ([3]; 6 h): 0.19 ± 0.02 %ID/g | Biodistribution, Fat ([3]; 6 h): 0.99 ± 0.27 %ID/g | Biodistribution, Heart ([3]; 6 h): 2.25 ± 0.33 %ID/g | Biodistribution, Intestine ([3]; 6 h): 1.69 ± 0.55 %ID/g | Biodistribution, Kidney ([3]; 6 h): 58.85 ± 6.00 %ID/g | Biodistribution, Liver ([3]; 6 h): 4.11 ± 0.53 %ID/g | Biodistribution, Lung ([3]; 6 h): 4.76 ± 0.51 %ID/g | Biodistribution, Muscle ([3]; 6 h): 1.05 ± 0.14 %ID/g | Biodistribution, Spleen ([3]; 6 h): 5.05 ± 1.56 %ID/g | Biodistribution, Stomach ([3]; 6 h): 0.92 ± 0.45 %ID/g | Biodistribution, Blood ([3]; 24 h): 1.39 ± 0.15 %ID/g | Biodistribution, Bone ([3]; 24 h): 0.60 ± 0.03 %ID/g | Biodistribution, Brain ([3]; 24 h): 0.13 ± 0.01 %ID/g | Biodistribution, Fat ([3]; 24 h): 0.63 ± 0.26 %ID/g | Biodistribution, Heart ([3]; 24 h): 1.22 ± 0.06 %ID/g | Biodistribution, Intestine ([3]; 24 h): 1.16 ± 0.24 %ID/g | Biodistribution, Kidney ([3]; 24 h): 37.40 ± 1.84 %ID/g | Biodistribution, Liver ([3]; 24 h): 5.32 ± 0.12 %ID/g | Biodistribution, Lung ([3]; 24 h): 2.53 ± 0.20 %ID/g | Biodistribution, Muscle ([3]; 24 h): 0.42 ± 0.05 %ID/g | Biodistribution, Spleen ([3]; 24 h): 2.56 ± 0.33 %ID/g | Biodistribution, Stomach ([3]; 24 h): 0.67 ± 0.22 %ID/g | Biodistribution, Blood ([3]; 48 h): 0.45 ± 0.15 %ID/g | Biodistribution, Bone ([3]; 48 h): 0.83 ± 0.10 %ID/g | Biodistribution, Brain ([3]; 48 h): 0.18 ± 0.01 %ID/g | Biodistribution, Fat ([3]; 48 h): 0.40 ± 0.10 %ID/g | Biodistribution, Heart ([3]; 48 h): 0.95 ± 0.07 %ID/g | Biodistribution, Intestine ([3]; 48 h): 0.56 ± 0.08 %ID/g | Biodistribution, Kidney ([3]; 48 h): 9.55 ± 2.33 %ID/g | Biodistribution, Liver ([3]; 48 h): 3.86 ± 0.31 %ID/g | Biodistribution, Lung ([3]; 48 h): 1.32 ± 0.13 %ID/g | Biodistribution, Muscle ([3]; 48 h): 0.45 ± 0.04 %ID/g | Biodistribution, Spleen ([3]; 48 h): 1.19 ± 0.11 %ID/g | Biodistribution, Stomach ([3]; 48 h): 0.44 ± 0.11 %ID/g | Biodistribution, Blood (PC3-PIP tumor xenograft; 2 h): 9.81 ± 3.47 %ID/g | Biodistribution, Bone (PC3-PIP tumor xenograft; 2 h): 5.71 ± 1.47 %ID/g | Biodistribution, Fat (PC3-PIP tumor xenograft; 2 h): 5.72 ± 5.53 %ID/g | Biodistribution, Heart (PC3-PIP tumor xenograft; 2 h): 4.56 ± 1.25 %ID/g | Biodistribution, Intestine (PC3-PIP tumor xenograft; 2 h): 2.97 ± 1.15 %ID/g | Biodistribution, Kidney (PC3-PIP tumor xenograft; 2 h): 65.02 ± 22.42 %ID/g | Biodistribution, Liver (PC3-PIP tumor xenograft; 2 h): 8.33 ± 2.29 %ID/g | Biodistribution, Lung (PC3-PIP tumor xenograft; 2 h): 7.72 ± 2.30 %ID/g | Biodistribution, Muscle (PC3-PIP tumor xenograft; 2 h): 2.14 ± 0.59 %ID/g | Biodistribution, Spleen (PC3-PIP tumor xenograft; 2 h): 8.58 ± 3.99 %ID/g | Biodistribution, Stomach (PC3-PIP tumor xenograft; 2 h): 2.50 ± 1.05 %ID/g | Biodistribution, Tumor (PC3-PIP tumor xenograft; 2 h): 22.61 ± 14.10 %ID/g | Biodistribution, Blood (PC3-PIP tumor xenograft; 6 h): 4.01 ± 0.94 %ID/g | Biodistribution, Bone (PC3-PIP tumor xenograft; 6 h): 1.81 ± 1.50 %ID/g | Biodistribution, Fat (PC3-PIP tumor xenograft; 6 h): 4.14 ± 1.33 %ID/g | Biodistribution, Heart (PC3-PIP tumor xenograft; 6 h): 2.59 ± 0.38 %ID/g | Biodistribution, Intestine (PC3-PIP tumor xenograft; 6 h): 2.74 ± 0.80 %ID/g | Biodistribution, Kidney (PC3-PIP tumor xenograft; 6 h): 91.48 ± 12.98 %ID/g | Biodistribution, Liver (PC3-PIP tumor xenograft; 6 h): 6.96 ± 1.00 %ID/g | Biodistribution, Lung (PC3-PIP tumor xenograft; 6 h): 5.75 ± 2.72 %ID/g | Biodistribution, Muscle (PC3-PIP tumor xenograft; 6 h): 1.44 ± 0.56 %ID/g | Biodistribution, Spleen (PC3-PIP tumor xenograft; 6 h): 6.63 ± 0.12 %ID/g | Biodistribution, Stomach (PC3-PIP tumor xenograft; 6 h): 1.42 ± 0.53 %ID/g | Biodistribution, Tumor (PC3-PIP tumor xenograft; 6 h): 35.14 ± 9.68 %ID/g | Biodistribution, Blood (PC3-PIP tumor xenograft; 24 h): 1.23 ± 0.38 %ID/g | Biodistribution, Bone (PC3-PIP tumor xenograft; 24 h): 2.81 ± 1.71 %ID/g | Biodistribution, Fat (PC3-PIP tumor xenograft; 24 h): 0.74 ± 0.20 %ID/g | Biodistribution, Heart (PC3-PIP tumor xenograft; 24 h): 1.64 ± 0.12 %ID/g | Biodistribution, Intestine (PC3-PIP tumor xenograft; 24 h): 2.38 ± 0.42 %ID/g | Biodistribution, Kidney (PC3-PIP tumor xenograft; 24 h): 50.29 ± 7.06 %ID/g | Biodistribution, Liver (PC3-PIP tumor xenograft; 24 h): 6.99 ± 0.45 %ID/g | Biodistribution, Lung (PC3-PIP tumor xenograft; 24 h): 4.58 ± 1.08 %ID/g | Biodistribution, Muscle (PC3-PIP tumor xenograft; 24 h): 0.41 ± 0.06 %ID/g | Biodistribution, Spleen (PC3-PIP tumor xenograft; 24 h): 2.79 ± 0.87 %ID/g | Biodistribution, Stomach (PC3-PIP tumor xenograft; 24 h): 1.27 ± 0.08 %ID/g | Biodistribution, Tumor (PC3-PIP tumor xenograft; 24 h): 37.13 ± 3.65 %ID/g | Biodistribution, Blood (PC3-PIP tumor xenograft; 48 h): 1.08 ± 0.27 %ID/g | Biodistribution, Bone (PC3-PIP tumor xenograft; 48 h): 3.42 ± 0.40 %ID/g | Biodistribution, Fat (PC3-PIP tumor xenograft; 48 h): 2.36 ± 1.25 %ID/g | Biodistribution, Heart (PC3-PIP tumor xenograft; 48 h): 1.91 ± 0.57 %ID/g | Biodistribution, Intestine (PC3-PIP tumor xenograft; 48 h): 1.54 ± 0.16 %ID/g | Biodistribution, Kidney (PC3-PIP tumor xenograft; 48 h): 52.07 ± 18.32 %ID/g | Biodistribution, Liver (PC3-PIP tumor xenograft; 48 h): 5.74 ± 1.83 %ID/g | Biodistribution, Lung (PC3-PIP tumor xenograft; 48 h): 3.64 ± 1.14 %ID/g | Biodistribution, Muscle (PC3-PIP tumor xenograft; 48 h): 0.80 ± 0.22 %ID/g | Biodistribution, Spleen (PC3-PIP tumor xenograft; 48 h): 3.56 ± 1.14 %ID/g | Biodistribution, Stomach (PC3-PIP tumor xenograft; 48 h): 1.14 ± 0.31 %ID/g | Biodistribution, Tumor (PC3-PIP tumor xenograft; 48 h): 28.84 ± 13.04 %ID/g | effective dose ([4]; ICRP tissue-weighting factors, OLINDA/EXM, extrapolated from mouse biodistribution): 3.00 × 10^−2 mSv/MBq | estimated radiation-absorbed dose, kidneys ([4]; adult males, extrapolated from normal BALB/c mouse biodistribution): 2.02 mGy/MBq
SMILES: O=C([O-])CN1CCN(CC(=O)[O-])CCN(CC(=O)N[C@@H](CCCCNC(=O)CCCc2ccc(I)cc2)C(=O)NCCOCCOCC(=O)N(CCCC[C@H](NC(=O)N[C@@H](CCC(=O)O)C(=O)O)C(=O)O)CC(=O)O)CC1.[64Cu+2] [^64Cu-cunotadipep]
cellular uptake (PC3-PIP (PSMA+) cells): 6.02 ± 0.05% | cellular uptake (PC3-flu (PSMA−) cells): 1.52 ± 0.03%
